Like-named read-outs stand apart in the source and are kept apart here. Values belong to the molecule of their own block, whether it stands above or below them.
Legend:
[1] = tested on: CHO–K1 cells; experiment: OCR in the absence or presence of oligomycin (Supplementary Fig. 6); format: cell-based, Cricetulus griseus; conditions: 1 μM oligomycin; for Effect of oligomycin on uncoupler-stimulated OCR: uncoupler at lowest concentration yielding MaxOCR
Protocol: ATP synthase is the major conduit through which protons re-enter the mitochondrial matrix. Thus, we sought to investigate whether the selected uncouplers could stimulate oxygen consumption in the presence of the ATP synthase inhibitor oligomycin.
Supplementary Figure 6. […] At ~24 minutes, 1 μM of oligomycin or vehicle was injected, followed by the injection of the indicated uncoupler or vehicle at ~44 minutes, and 0.5 μM Rotenone / Antimycin A at ~88 minutes.

[2] = tested on: CHO–K1 cells; experiment: Seahorse XF-96 OCR dose response of 15 uncouplers (Figure 2); format: cell-based, Cricetulus griseus; conditions: CHO–K1; for MaxOCR: 0.32–200 μM, first 24 min post injection; for EC50: mean OCR (% basal) over first 24 min post injection, ± standard error, four-parameter fit, read-out: EC50 (increase of OCR); for MaxOCR lower than that seen with BAM15: Figure 2; for Concentration range with sustained enhanced OCR (OCR ≥ 150% basal): tested 0.32–200 μM
Protocol: (§1) Stock solutions of the uncouplers and/or Rotenone/Antimycin A were diluted in Seahorse media to give the final concentration indicated in Figure 1, Figure 2, Figure 3 with 0.4% (v/v) DMSO in wells.

[3] = tested on: Zucker diabetic fatty rats, Akita mice, and Otsuka Long-Evans Tokushima Fatty rats; design: method as in PMID 31092829; conditions: decreased HbA1c and lowered fasting blood glucose; cited from earlier work
[4] = Drug exposure / pharmacokinetics after oral gavage; conditions: male, C57BL/6J, mouse, plasma, 10 mg/kg
[5] = tested on: db/db mice; experiment: Four-week treatment by admixture in chow, metabolic phenotyping; conditions: 4 weeks; for Body weight / weight gain vs db/db controls: 0.15% BAM15, 0.02% OPC-163493, 0.015% and 0.03% ES9, NTZ and NEN both doses; for Body weight, food intake, or metabolic tissue weights vs control: 0.25% NEN, 0.2% NTZ, 0.01% and 0.02% OPC-163493; for Blood glucose, HbA1c, glucose tolerance vs control / Overall metabolic phenotype vs db/db control (Figure 8, words): NEN both doses; for Blood glucose, HbA1c, glucose tolerance vs control: 0.01% OPC, 0.015% ES9, 0.2% NTZ; for Overall metabolic phenotype vs db/db control (Figure 8, words): OPC-163493 both doses, NTZ 0.2%; for Liver mass vs db/db control: both doses of BAM15, low dose NEN; for Daily food intake: both doses of BAM15, low dose of NEN, high dose of NTZ
Protocol: Body weight and glucose tolerance of male db/+ and db/db mice was assessed at 8–9 weeks of age to obtain baseline measurements. Db/+ were used as lean metabolically healthy controls and given ad libitum access to chow diet. Db/db mice were stratified into 12 groups using R (V4.4.0).
Mice were on treatment for a period of four weeks, during which body weight and food intake were measured daily. […] To counter this, food traps were placed beneath hoppers and leftover food in both the traps and hoppers was weighed daily. HbA1c was measured weekly. At the end of the treatment period, a glucose tolerance test was conducted, with fed and fasted bloods collected. At termination, blood was collected via cardiac puncture under isoflurane anaesthesia. Mice were euthanised by cervical dislocation and harvested tissues were flash-frozen in liquid nitrogen and stored at −80 °C.
Mice were fasted for 6 h and then received intraperitoneal injections of 20% (w/v) dextrose at a dose of 1 g/kg lean body mass. Blood glucose (BG) was measured at the time of fasting (random-fed BG) and then again prior to the commencement of the GTT following the 6-hour daytime fast (fasted BG). […] The rate of glucose clearance was measured using the trapezoidal method for calculation of area under the curve.
HbA1c was measured once weekly using an A1cNow + Portable HbA1c Test Kit. […] HbA1c was measured in the random-fed state.
A glucose tolerance test was conducted at the end of the treatment period, with random fed and 6-hour fasted bloods collected. Blood was collected in heparin tubes and kept on ice prior to centrifugation at 2000×g for 10 min at 4 °C to extract plasma. Plasma insulin concentration was determined using the Crystal Chem Ultra-Sensitive Mouse Insulin ELISA kit, according to manufacturers' instructions for the high range (1–64 ng/mL) assay.

[6] = in vivo; cited from earlier work
[7] = tested on: RAW 264.7 cells; conditions: 0.5–50 μM
Protocol: as §1
(§2) The dashed line indicates basal respiration, defined as the mean OCR over the first 24 minutes of the assay. Error bars show SEM, n = 3 per condition from three separate experiments.

[8] = tested on: HeLa cells; conditions: 0.5–50 μM
Protocol: as §1, §2

[9] = tested on: HEK-293T cells; conditions: HEK293T; 0.5–50 μM
Protocol: as §1, §2

[10] = tested on: CHO–K1 cells; conditions: 0.5–50 μM, BAM15 at 5 μM, FCCP at 1 μM
Protocol: as §1

[11] = tested on: CDAA/c mouse model of NASH; design: method as in earlier work; conditions: cited from earlier work
[12] = tested on: rats; design: method as in PMID 3889119; conditions: cited from earlier work
[13] = tested on: rats; experiment: NTZ toxicology study in rats (literature); format: in vivo; conditions: worked out from rat dose
[14] = tested on: SARS-CoV-2; design: method as in PMID 35237748; conditions: two 300 mg extended release tablets; placebo […]; cited from earlier work
[15] = Terminal plasma drug concentration by LC-MS/MS; format: in vivo; conditions: db/db mice, study endpoint; TIZ row: mice fed 0.2% NTZ
Protocol: LC-MS/MS was performed using a Shimadzu Prominence LCMS-8030 as previously described.
Figure 7 Plasma drug concentration and markers of tissue damage in db/db mice at study endpoint. Plasma was collected via cardiac puncture at time of euthanasia. A–E) Terminal plasma drug concentration was measured by LC-MS/MS. F–I) Terminal plasma concentration of liver function indicators (ALT, AST and GLDH) and kidney function indicator (urea). Graphs show mean ± SEM, n = 6–9 per group for plasma drug concentration measurement. Due to the limited volume of samples, not all liver and kidney function tests could be performed for all mice.

[16] = tested on: isolated rat hepatocytes; design: method as in PMID 12150871, PMID 31297293; conditions: read-out: EC50, inhibiting oxygen consumption; cited from earlier work
[17] = tested on: rat hepatocytes; design: method as in PMID 15037196, PMID 8726330; conditions: cited from earlier work
[18] = Cricetulus griseus, CHO-K1, 0.4 h

Molecule: FC(F)(F)c1nc2c(Cl)c(Cl)c(Cl)c(Cl)c2[nH]1 [TTFB, 4,5,6,7-Tetrachloro-2-trifluoromethylbenzimidazole]
- Effect of oligomycin on uncoupler-stimulated OCR [1]: largely unaffected by the presence of oligomycin
- MaxOCR [2]: 280 % of basal
- Concentration inducing decline in OCR to sub-basal levels ([2]; first 24 min): 200 µM
- EC50 [2, 18]: 520 nM

Molecule: CNC(=O)c1cc(Oc2ccc(NC(=O)Nc3ccc(Cl)c(C(F)(F)F)c3)cc2)ccn1 [Sorafenib, 4-[4-({[4-chloro-3 (trifluoromethyl)phenyl]carbamoyl}amino)phenoxy]-N-methylpyridine-2-carboxamide]
- Uncoupling activity ([2]; tested concentration range, 120-minute assay): did not have any uncoupling activity

- Cmax [4]: 30.9 µM
Molecule: Cc1sc(-c2ccc(C(F)(F)F)cc2)nc1-c1nn[nH]c1C#N [OPC-163493, 4-(5-methyl-2-(4-(trifluoromethyl)phenyl)thiazol-4-yl)-1H-1,2,3-triazole-5-carbonitrile]
- Doses with significant anti-diabetic effects (as low as) [3]: ≥ 2 mg/kg/day
- Body weight / weight gain vs db/db controls [5]: non-significant trend for lower body weight
- Body weight, food intake, or metabolic tissue weights vs control [5]: not significantly different
- Blood glucose, HbA1c, glucose tolerance vs control [5]: did not have significantly lower random-fed or 6-hour fasted blood glucose
- Overall metabolic phenotype vs db/db control (Figure 8, words) [5]: No statistically significant changes
- Effect of oligomycin on uncoupler-stimulated OCR [1]: largely unaffected by the presence of oligomycin
- Concentration giving max efficacy / MaxOCR [2]: 10 µM
- MaxOCR lower than that seen with BAM15 [2]: ~22%
- EC50 [2]: 1000 nM
- EC50 [2, 18]: 1010 ± 1200 nM

Molecule: liraglutide
- Loss of lean mass [6]: up to 60 % of total weight lost

Molecule: N#CC(C#N)=NNc1ccc(OC(F)(F)F)cc1 [FCCP, Carbonyl cyanide p-trifluoromethoxyphenylhydrazone]
- Stimulation of OCR [7]: failed to stimulate OCR above basal levels
- Effect of oligomycin on uncoupler-stimulated OCR [1]: largely unaffected by the presence of oligomycin
- Stimulation of OCR [8]: failed to stimulate OCR above basal levels
- MaxOCR [2]: 260 % of basal
- EC50 [2, 18]: 310 nM
- Stimulation of OCR [9]: failed to stimulate OCR above basal levels
- MaxOCR [10]: ~260 % basal

Molecule: CC(=O)Oc1ccccc1C(=O)Nc1ncc([N+](=O)[O-])s1 [NTZ, Nitazoxanide]
- Body weight / weight gain vs db/db controls [5]: little impact on body weight
- Body weight, food intake, or metabolic tissue weights vs control [5]: not significantly different
- Gonadal fat less than control group ([5]; 0.4% in chow): 26%
- Post-treatment GTT AUC lower than control group ([5]; 0.4% in chow): ~29%
- Blood glucose, HbA1c, glucose tolerance vs control [5]: did not have significantly lower random-fed or 6-hour fasted blood glucose
- Overall metabolic phenotype vs db/db control (Figure 8, words) [5]: no statistically significant phenotype
- Liver mass vs db/db control ([5]; high dose NTZ): statistically decreased liver mass
- Daily food intake [5]: restored normal food intake
- HbA1c ([5]; both doses of BAM15, printed 0.3% ES9, 0.4% NTZ): lowered HbA1c levels
- Fasting and random fed blood glucose ([5]; either dose of BAM15, high dose ES9, high dose NTZ): partial efficacy
- Increase of liver cholesterol concentration vs db/db control ([5]; high dose NTZ (0.4%)): ~1.7 fold
- Increase of liver cholesterol concentration vs db/db control ([5]; low dose NTZ (0.2%)): ~1.5 fold
- Decrease in liver fibrosis ([11]; 100 mg/kg/day): 32%
- Decrease in liver fibrosis ([11]; co-administered with Elafibranor): 60%
- Doses with increased salivation and lethargy, increased liver and spleen size [12]: ≥ 450 mg/kg/day
- EC50 [2, 18]: 2320 ± 460 nM
- Mouse equivalent dose of the rat adverse effect dose [13]: ~900 mg/kg/day
- Patients progressed to severe disease [14]: 0.5%

Molecule: Cc1c2ccncc2c(C)c2c1[nH]c1ccccc12 [ELL, Ellipticine]
- Concentration at which OCR increased above basal levels [2]: > 100 µM
- MaxOCR [2]: ~122 % of basal

Molecule: semaglutide
- Loss of lean mass [6]: up to 40 % of total weight lost

Molecule: COc1cc(C(=O)OCC=C(C)C)nc2c(OCC=C(C)C)cccc12 [Ppc-1, Polysphondylium pseudo-candidum-1]
- OCR at 31.6 μM [2]: ~130 % basal
- Concentration inducing decline in OCR to sub-basal levels ([2]; after ∼40 min of treatment): over 31.6 μM
- EC50 [2, 18]: 13500 ± 7140 nM

Molecule: CCCCCCCCCCCC[P+](c1ccccc1)(c1ccccc1)c1ccccc1 [C12TPP, Dodecyl-triphenylphosphonium]
- Higher OCR in the presence of oligomycin ([1]; initially): ~60%
- Effect of oligomycin on uncoupler-stimulated OCR [1]: largely unaffected by the presence of oligomycin
- Concentration giving max efficacy / MaxOCR [2]: 3.16 µM
- MaxOCR [2]: ~178 % of basal
- OCR at higher doses ([2]; doses above 3.16 μM): ~18 % of baseline
- EC50 ([2]; Cricetulus griseus, 0.4 h): 1020 ± 980 nM

Molecule: O=C(Nc1cc(Cl)cc(Cl)c1)Nc1cc(Cl)cc(Cl)c1 [SR4, 1,3-bis(3,5-dichlorophenyl)urea]
- Concentration at which OCR increased above basal levels [2]: 200 µM
- MaxOCR [2]: ~117 % of basal

Molecule: O=C(Nc1ncc([N+](=O)[O-])s1)c1ccccc1O [TIZ, tizoxanide]
- Terminal plasma drug concentration vs in vitro uncoupling range [15]: lower than the concentration at which oxygen consumption rate was enhanced in vitro

Molecule: O=C(Nc1ccc([N+](=O)[O-])cc1Cl)c1cc(Cl)ccc1O [NEN, Niclosamide ethanolamine]
- Body weight / weight gain vs db/db controls [5]: little impact on body weight
- Body weight, food intake, or metabolic tissue weights vs control [5]: not significantly different
- Blood glucose, HbA1c, glucose tolerance vs control [5]: did not have significantly lower random-fed or 6-hour fasted blood glucose
- Overall metabolic phenotype vs db/db control (Figure 8, words) [5]: no significant changes compared to the db/db control except lower liver weight
- Liver mass vs db/db control ([5]; high dose NTZ): statistically decreased liver mass
- Daily food intake [5]: restored normal food intake
- Effect of oligomycin on uncoupler-stimulated OCR [1]: largely unaffected by the presence of oligomycin
- MaxOCR lower than that seen with BAM15 [2]: ~25%
- Concentration range with sustained enhanced OCR (OCR ≥ 150% basal) [2]: 0.32 µM
- EC50 [2, 18]: 90 nM

Molecule: CC(C)(C)c1cc(C=C(C#N)C#N)cc(C(C)(C)C)c1O [TyrA9, Tyrphostin A9]
- Effect of oligomycin on uncoupler-stimulated OCR [1]: largely unaffected by the presence of oligomycin
- EC50 [16]: 78 µM
- MaxOCR lower than that seen with BAM15 [2]: ~140%
- Concentration range with sustained enhanced OCR (OCR ≥ 150% basal) [2]: ≤ 100 µM
- EC50 [2, 18]: 10 nM

Molecule: CC(=O)C1=C(O)C=C2Oc3c(C(C)=O)c(O)c(C)c(O)c3[C@@]2(C)C1=O [UsAc, (+)-usnic acid]
- Effect of oligomycin on uncoupler-stimulated OCR [1]: largely unaffected by the presence of oligomycin
- OCR at 31.6 μM [2]: ~125 % basal
- Concentration inducing decline in OCR to sub-basal levels ([2]; after ∼40 min of treatment): over 31.6 μM
- EC50 ([2]; Cricetulus griseus, 0.4 h): 430 ± 120 nM
- Concentrations acutely toxic [17]: (+)-usnic acid (UsAc) • UsAc has not been tested in mouse models of metabolic disease. Concentrations of 2–5 μM UsAc are acutely toxic to rat hepatocytes [84, 85]. • UsAc is found in the unregulated weight-loss supplement LipoKinetix [86].

— article PMC12303080, “Diverse actions of 15 structurally unrelated mitochondrial uncouplers in cells and mice” (Molecular Metabolism, 2025)
